Columns and labels:
Assay in all cases: area under dose-response curve of surviving fraction (unscaled, Aref=0) (surviving fraction x log10(nM)); higher = more resistant
Conditions in all cases: exposure time: 5 days; dose range 0.5-1000 nM
MK-1775 = compound: C=CCn1c(=O)c2cnc(Nc3ccc(N4CCN(C)CC4)cc3)nc2n1-c1cccc(C(C)(C)O)n1 [MK-1775]
In short: (§1)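 Tumour cell lines in 384-well plates were exposed to eight inhibitor concentrations, from 0.5 to 1000 nM, for five days, and viability was read by CellTiter-Glo luminescence in three screens per line. Signals were normalised to DMSO-only wells, and 3-parameter logistic regression in the drc R package fitted dose-response survival curves to the surviving fractions. Area under the curve is given as the unscaled activity area. That area is taken over log10 dose with Aref = 0.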

[1] = compound: CCc1cc(Nc2nccc(-c3c(-c4ccc(OC)c(C(=O)Nc5c(F)cccc5F)c4)nc4ccccn34)n2)c(OC)cc1N1CCC(N2CCN(S(C)(=O)=O)CC2)CC1
In short: as §1

CABOZANTINIB = compound: COc1cc2nccc(Oc3ccc(NC(=O)C4(C(=O)Nc5ccc(F)cc5)CC4)cc3)c2cc1OC [CABOZANTINIB]
In short: as §1

LENVATINIB = compound: COc1cc2nccc(Oc3ccc(NC(=O)NC4CC4)c(Cl)c3)c2cc1C(N)=O [LENVATINIB]
In short: as §1

[2] = compound: COc1ccc(-c2cc3c(C)nc(N)nc3n([C@H]3CC[C@H](OCCO)CC3)c2=O)cn1
In short: as §1

[3] = compound: C[C@@H]1CN(CC(=O)Nc2ccc3c(c2)Cc2cccc(-c4cc(=O)cc(N5CCOCC5)o4)c2S3)C[C@H](C)O1
In short: as §1

[4] = compound: C[C@H](CN(C)C)Oc1nc(Nc2cc3cccc(Cl)c3cn2)cnc1C#N
In short: as §1

BLEOMYCIN = compound: Cc1c(N)nc([C@H](CC(N)=O)NC[C@H](N)C(N)=O)nc1C(=O)N[C@H](C(=O)N[C@H](C)[C@@H](O)[C@H](C)C(=O)N[C@H](C(=O)NCCc1nc(-c2nc(C(=O)NCCC[S+](C)C)cs2)cs1)[C@@H](C)O)[C@@H](OC1OC(CO)C(O)C(O)C1OC1OC(CO)C(O)C(OC(N)=O)C1O)c1cnc[nH]1 [BLEOMYCIN]
In short: as §1

IMATINIB = compound: Cc1ccc(NC(=O)c2ccc(CN3CCN(C)CC3)cc2)cc1Nc1nccc(-c2cccnc2)n1 [IMATINIB]
In short: as §1

NILOTINIB = compound: Cc1cn(-c2cc(NC(=O)c3ccc(C)c(Nc4nccc(-c5cccnc5)n4)c3)cc(C(F)(F)F)c2)cn1 [NILOTINIB]
In short: as §1

BEZ-235 = compound: Cn1c(=O)n(-c2ccc(C(C)(C)C#N)cc2)c2c3cc(-c4cnc5ccccc5c4)ccc3ncc21 [BEZ-235]
In short: as §1

BMN-673 = compound: Cn1ncnc1[C@H]1c2n[nH]c(=O)c3cc(F)cc(c23)N[C@@H]1c1ccc(F)cc1 [BMN-673]
In short: as §1

VORINOSTAT = compound: O=C(CCCCCCC(=O)Nc1ccccc1)NO [VORINOSTAT]
In short: as §1

AFIMOXIFENE = compound: CC/C(=C(\c1ccc(O)cc1)c1ccc(OCCN(C)C)cc1)c1ccccc1 [AFIMOXIFENE]
In short: as §1

Row | Test System | area under dose-response curve (MK-1775) | area under dose-response curve [1] | area under dose-response curve (CABOZANTINIB) | area under dose-response curve (LENVATINIB) | area under dose-response curve [2] | area under dose-response curve [3] | area under dose-response curve [4] | area under dose-response curve (BLEOMYCIN) | area under dose-response curve (IMATINIB) | area under dose-response curve (NILOTINIB) | area under dose-response curve (BEZ-235) | area under dose-response curve (BMN-673) | area under dose-response curve (VORINOSTAT) | area under dose-response curve (AFIMOXIFENE)
1 | MG63 BONE | 2.87 | 3.27 | 3.04 | 2.98 | 2.06 | 3.46 | 3.49 | 2.35 | 3.51 | 3.81 | 2.27 | 2.31 | 3.43 | 
2 | NCIH441 LUNG | 2.78 | 3.27 | 3.29 | 3.46 | 2.77 | 3.5 |  | 2.86 | 3.69 |  | 3.03 | 2.71 | 3.23 | 3.62
3 | NOS1 BONE | 1.79 | 3.75 | 2.96 | 2.79 | 2.25 |  | 2.6 | 2.66 |  | 2.94 | 2.32 | 2.26 |  | 3.91
4 | RDES SOFT TISSUE | 2.98 | 3.71 | 3.82 | 3.93 | 2.91 |  | 4.28 | 2.68 |  |  |  | 2.03 | 3.64 | 3.94
5 | S68 BREAST | 2.17 |  | 3.55 | 3.45 | 1.84 |  | 2.49 | 2.99 | 3.6 | 2.73 | 2.14 | 1.74 | 3.12 | 3.23
6 | SAOS2 BONE | 2.49 | 3.69 |  | 3.65 | 2.29 | 3.16 |  | 2.59 | 3.89 | 3.18 | 2.74 | 2.32 |  | 3.87
7 | SCC003 HEADNECK | 2.83 | 3.47 | 3.21 | 3.75 | 2.7 | 3.42 | 3.46 | 2.6 | 3.7 | 3.21 | 2.63 | 2.8 |  | 
8 | SCC36 HEADNECK | 2.66 | 3.23 | 3.43 | 3.67 | 2.62 | 3.05 | 3 | 2.48 | 3.55 | 3 | 2.98 | 2.52 | 3.13 | 
9 | SCC90 HEADNECK | 2.22 | 3.49 | 3.14 | 3.91 | 2.3 |  | 2.62 | 3.23 | 3.71 |  | 2.68 | 3.31 |  | 
10 | SG27 HEADNECK |  | 3.63 |  | 3.51 | 2.65 | 3.35 | 3.57 | 3.29 | 3.66 | 3.63 | 3.01 |  |  | 3.58
11 | SG28 HEADNECK | 2.63 | 3.59 |  | 3.48 | 2.44 |  |  | 2.97 |  |  | 2.58 |  |  | 
12 | SG31 HEADNECK | 2.93 | 3.44 | 3.45 | 3.43 | 2.18 | 3.26 |  | 2.62 |  | 3.85 | 2.43 |  |  | 3.88
13 | SG32 HEADNECK | 2.43 | 3.97 | 3.26 | 3.96 | 2.95 | 3.15 |  | 2.56 | 3.6 | 3.05 | 2.45 | 3.1 | 3.07 | 
14 | SG43 HEADNECK |  | 3.51 | 2.63 | 3.03 | 1.92 |  | 2.79 | 2.58 | 3.35 | 4.68 | 2.72 | 2.45 | 3.27 | 
15 | SJSA1 BONE | 2.86 | 3.48 | 5.44 | 3.51 | 2.46 | 3.26 | 5.38 | 2.25 |  | 5.57 | 2.51 | 4.84 | 2.78 | 
16 | SNU475 LIVER | 2.93 | 3.12 | 3.24 |  | 2.13 | 3.13 |  | 2.51 | 3.51 | 3.21 | 2.04 | 2.83 | 3.12 | 
17 | SUM44 BREAST | 2.54 |  | 4.12 | 3.41 | 2.6 | 3.07 | 2.65 | 3.07 |  | 3.21 | 2.29 | 3.29 | 2.88 | 
18 | SUM149 BREAST | 2.21 | 3.6 | 3.18 |  | 2.28 | 3.07 | 2.65 | 1.44 | 3.23 | 2.88 | 2.39 | 0.994 |  | 3.16
19 | SUM149.B1*.S BREAST | 2.74 | 3.62 | 3.39 | 3.96 | 2.71 |  |  | 2.89 | 3.85 | 3.68 | 3.03 | 2.65 |  | 3.8
20 | VCAP PROSTATE | 2.4 | 3.37 | 3.28 |  | 2.35 | 3.6 | 3.1 | 3.21 | 3.67 | 3.26 | 2.82 | 2.63 | 2.98 | 3.49
21 | YAMATO SYNOVIAL |  | 4.39 | 2.65 |  | 2.19 |  |  | 3.25 |  |  | 2.84 | 2.65 |  | 4.25
22 | ZR751 BREAST |  | 3.02 |  |  | 1.71 | 3.26 | 2.92 | 3.06 |  | 3.01 | 2.35 | 3.29 | 4.01 | 3.68

— the supplement of paper PMC6045584
